Results taken from patent US11007148B2, “Amphiphilic block copolymers for delivery of active agents” (priority 2014, dated 2021).
Counter-ions that a name gives are not always drawn.

Experiments:
[1] = free drug; cited from earlier work
[2] = mouse, in vivo
From the text: In this example the kinetic properties of loaded micelles with PTX are studied in vivo using the fluorophore labels Cy7 and Cy5.5. Cy7 was covalently linked to the polymer chain and reports about the fate of the injected micelles; Cy5.5 was physically loaded in the core of the micelles and used as a modal drug.
CD-1 nude female mice (n=5) were fed with chlorophyll-free food pellets and water ad libitum, and caged in ventilated cages and clinically controlled rooms and atmosphere.

| Molecule | Log P [1] | half-life of the Cy5.5 label relative to the micelles [2] |
| --- | --- | --- |
| COc1cccc2c1C(=O)c1c(O)c3c(c(O)c1C2=O)C[C@@](O)(C(=O)CO)C[C@@H]3O[C@H]1C[C@H](N)[C@H](O)[C@H](C)O1 [DOX•HCl, doxorubicin hydrochloride] | 2.82 |  |
| C[C@H](NC(=O)Cc1cc(F)cc(F)c1)C(=O)N[C@H](C(=O)OC(C)(C)C)c1ccccc1 [DAPT] | 3.54 |  |
| Cy5.5 |  | shorter half-life |
| CC(=O)O[C@H]1C(=O)[C@@]2(C)[C@H]([C@H](OC(=O)c3ccccc3)[C@]3(O)C[C@H](OC(=O)[C@H](O)[C@@H](NC(=O)c4ccccc4)c4ccccc4)C(C)=C1C3(C)C)[C@]1(OC(C)=O)CO[C@@H]1C[C@@H]2O [Paclitaxel] | 4.7 |  |
| COc1nc2ccc(Br)cc2cc1[C@@H](c1ccccc1)[C@@](O)(CCN(C)C)c1cccc2ccccc12 [Bedaquiline] | 7.59 |  |
